# Reference: patent publication US8877741B2, “Pyrrolidine derivatives, pharmaceutical compositions and uses thereof” (Boehringer Ingelheim International GmbH, priority 2013, dated 2014)
# pIC50: −log10 of the molar value.
# Target: human ACC2 (Homo sapiens (Human), UniProt O00763)
# Assay: ACC2 assay, spectrophotometric 384 well assay (NADH-linked kinetic method)
# Assay type: biochemical
# Conditions: human ACC2 construct lacking the 128 N-terminal amino acids; coupled lactate dehydrogenase/pyruvate kinase reaction, 340 nm, 25° C.
# Experimental: Spectrophotometric 384 Well Assay
# Malonyl CoA formation by acetyl CoA carboxylases is stoichometrically linked to the consumption of ATP. ACC2 activity is measured in a NADH-linked kinetic method measuring ADP generated during the ACC reaction using a coupled lactate dehydrogenase/pyruvate kinase reaction.
# For biological testing, a human ACC2 construct which lacks the 128 amino acids at the N-terminus for increased solubility (nt 385-6966 in Genbank entry AJ575592) is cloned. The protein is then expressed in insect cells using a baculoviral expression system. Protein purification is performed by anion exchange.
# All compounds are dissolved in dimethyl sulfoxide (DMSO) to a concentration of 10 mM.
# The enzymatic reaction is then started by addition of a mixture of NADH, acetyl Coenzyme A (both 2000 μM f.c.) and ATP (500 uM f.c.). The decrease of the optical density (slope S) is then determined at 25° C. at a wavelength of 340 nm over 15 minutes in a spectrophotometric reader.
# Each assay microtiter plate contains wells with vehicle instead of compound as controls for the non-inhibited enzyme (100% CTL; ‘HIGH’) and wells without acetyl-CoA as controls for non-specific NADH degradation (0% CTL; ‘LOW’).
# The slope S is used for calculation of % CTL=(S(compound)−S(‘LOW’))/(S(‘HIGH’)−S(‘LOW’))*100.
# For IC50 value determination, the sample slope in the presence of the test compound after subtraction of the low controls (S(compound)−S(‘LOW’)) are used.
# An IC50 value is derived from the compound slopes at different dosages after subtraction of the low controls (S(compound)−S(‘LOW’)) by non-linear regression curve fitting (equation y=(A+((B−A)/(1+((C/x)^D))))).
# Chain of human ACC2 (O00763 129-2458): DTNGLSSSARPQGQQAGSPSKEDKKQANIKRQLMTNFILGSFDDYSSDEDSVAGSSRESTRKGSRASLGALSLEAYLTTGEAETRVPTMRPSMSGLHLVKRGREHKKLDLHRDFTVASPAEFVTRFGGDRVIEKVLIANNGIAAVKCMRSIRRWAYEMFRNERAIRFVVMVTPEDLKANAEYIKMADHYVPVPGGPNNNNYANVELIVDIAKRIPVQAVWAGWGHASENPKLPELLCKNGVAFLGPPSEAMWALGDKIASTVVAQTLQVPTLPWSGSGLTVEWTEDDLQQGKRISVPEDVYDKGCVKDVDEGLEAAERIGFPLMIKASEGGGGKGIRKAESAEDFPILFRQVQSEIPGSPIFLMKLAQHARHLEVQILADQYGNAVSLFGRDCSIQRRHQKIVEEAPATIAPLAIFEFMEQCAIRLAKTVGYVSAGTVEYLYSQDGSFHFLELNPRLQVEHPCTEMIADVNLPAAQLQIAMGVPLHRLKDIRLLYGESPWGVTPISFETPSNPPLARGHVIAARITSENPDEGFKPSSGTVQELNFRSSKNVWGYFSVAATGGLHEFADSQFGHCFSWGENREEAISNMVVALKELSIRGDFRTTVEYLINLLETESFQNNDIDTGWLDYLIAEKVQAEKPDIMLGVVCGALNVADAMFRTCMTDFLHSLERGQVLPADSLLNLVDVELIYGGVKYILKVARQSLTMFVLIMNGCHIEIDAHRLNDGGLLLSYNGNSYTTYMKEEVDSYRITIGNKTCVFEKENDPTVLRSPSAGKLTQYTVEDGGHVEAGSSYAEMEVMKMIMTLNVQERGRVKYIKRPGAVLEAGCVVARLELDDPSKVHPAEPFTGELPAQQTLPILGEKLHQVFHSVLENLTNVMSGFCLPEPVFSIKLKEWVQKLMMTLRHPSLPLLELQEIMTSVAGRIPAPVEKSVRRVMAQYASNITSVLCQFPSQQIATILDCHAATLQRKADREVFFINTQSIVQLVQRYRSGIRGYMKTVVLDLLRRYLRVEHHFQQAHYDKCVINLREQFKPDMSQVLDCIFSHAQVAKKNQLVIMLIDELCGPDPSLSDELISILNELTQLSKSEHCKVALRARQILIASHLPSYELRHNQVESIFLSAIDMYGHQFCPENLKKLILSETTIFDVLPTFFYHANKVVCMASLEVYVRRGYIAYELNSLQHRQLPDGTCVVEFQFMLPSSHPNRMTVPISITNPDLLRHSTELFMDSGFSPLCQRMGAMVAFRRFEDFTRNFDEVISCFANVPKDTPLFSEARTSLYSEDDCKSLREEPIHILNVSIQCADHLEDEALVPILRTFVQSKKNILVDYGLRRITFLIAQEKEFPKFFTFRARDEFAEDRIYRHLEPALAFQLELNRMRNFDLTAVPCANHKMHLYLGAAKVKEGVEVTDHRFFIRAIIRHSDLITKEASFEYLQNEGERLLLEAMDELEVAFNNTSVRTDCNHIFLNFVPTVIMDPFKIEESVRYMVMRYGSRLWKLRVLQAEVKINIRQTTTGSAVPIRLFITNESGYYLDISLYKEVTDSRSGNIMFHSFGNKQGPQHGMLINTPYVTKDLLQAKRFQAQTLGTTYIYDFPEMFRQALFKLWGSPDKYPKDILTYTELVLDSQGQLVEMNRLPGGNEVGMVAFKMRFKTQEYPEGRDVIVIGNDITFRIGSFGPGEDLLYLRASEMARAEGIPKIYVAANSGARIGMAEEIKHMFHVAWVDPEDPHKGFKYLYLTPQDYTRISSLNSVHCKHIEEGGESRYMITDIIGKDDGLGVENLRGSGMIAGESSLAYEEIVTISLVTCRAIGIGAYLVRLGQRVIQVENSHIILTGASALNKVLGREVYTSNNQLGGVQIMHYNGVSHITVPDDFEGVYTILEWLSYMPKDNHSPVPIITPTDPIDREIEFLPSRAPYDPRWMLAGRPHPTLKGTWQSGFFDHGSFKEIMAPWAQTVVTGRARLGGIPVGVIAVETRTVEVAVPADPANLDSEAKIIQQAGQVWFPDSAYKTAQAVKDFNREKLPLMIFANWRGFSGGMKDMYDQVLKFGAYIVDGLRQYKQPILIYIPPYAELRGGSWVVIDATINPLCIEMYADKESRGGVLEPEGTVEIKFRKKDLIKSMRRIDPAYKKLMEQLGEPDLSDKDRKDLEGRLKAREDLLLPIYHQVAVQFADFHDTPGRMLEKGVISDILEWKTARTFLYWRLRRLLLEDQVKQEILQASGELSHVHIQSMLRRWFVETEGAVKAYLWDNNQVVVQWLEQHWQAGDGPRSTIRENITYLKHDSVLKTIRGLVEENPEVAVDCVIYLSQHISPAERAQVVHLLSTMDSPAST
row,pIC50,Compound
1,7.06,CCCOc1cnc(N2CCC(Oc3ccc([C@H](C)NC(C)=O)cc3)C2)c(Cl)c1 (stereo partly drawn) [Example 1.71]
2,7.15,CCCOc1cc(N2CCC(Oc3ccc([C@H](C)NC(C)=O)cc3)C2)c(F)cn1 (stereo partly drawn) [Example 1.72]
3,7.23,CC(=O)N[C@@H](C)c1ccc(OC2CCN(c3cc(OCC4CC4)ncc3F)C2)cc1 (stereo partly drawn) [Example 1.73]
4,7.00,CC(=O)N[C@@H](C)c1ccc(OC2CCN(c3cc(OC(C)C)ncc3F)C2)cc1 (stereo partly drawn) [Example 1.74]
5,7.52,CC(=O)N[C@@H](C)c1ccc(OC2CCN(c3cc(OCC(C)C)ncc3F)C2)cc1 (stereo partly drawn) [Example 1.75]
6,7.20,CC(=O)N[C@@H](C)c1ccc(OC2CCN(c3cc(OCC4CC4(F)F)ncc3F)C2)cc1 (stereo partly drawn) [Example 1.76]
7,7.54,CC(=O)N[C@@H](C)c1ccc(OC2CCN(c3ncc(OCC4CC4(F)F)cc3Cl)C2)cc1 (stereo partly drawn) [Example 1.77]
8,6.70,CCOc1cnc(N2CCC(Oc3ccc([C@H](C)NC(C)=O)cc3)C2)c(Cl)c1 (stereo partly drawn) [Example 1.78]
9,6.02,CC(=O)N[C@@H](C)c1ccc(OC2CCN(c3cccc(C4(S(C)(=O)=O)CC4)n3)C2)cc1 (stereo partly drawn) [Example 1.79]
10,6.32,COc1cc(OCC2CC2)cnc1N1CCC(Oc2ccc([C@H](C)NC(C)=O)cc2)C1 (stereo partly drawn) [Example 1.80]
11,6.37,COc1cc(OCC2CC2(F)F)cnc1N1CCC(Oc2ccc([C@H](C)NC(C)=O)cc2)C1 (stereo partly drawn) [Example 1.81]
12,6.96,C[C@H](NC(=O)c1cncs1)c1ccc(O[C@@H]2CCN(c3ccc(OCCCF)cn3)C2)cc1 [Example 1.82]
13,5.52,CSc1ccc(N2CCC(Oc3ccc([C@H](C)NC(C)=O)cc3)C2)cn1 (stereo partly drawn) [Example 1.83]
14,6.94,CC(=O)N[C@@H](C)c1ccc(OC2CCN(c3cccc(C4CCCC4)n3)C2)cc1 (stereo partly drawn) [Example 1.84]
15,6.97,Cc1cccc(N2CC[C@@H](Oc3ccc([C@H](C)NC(=O)c4cncs4)cc3)C2)n1 [Example 1.85]
16,7.05,CC(=O)N[C@@H](C)c1ccc(OC2CCN(c3cccc(C4CCC4)n3)C2)cc1 (stereo partly drawn) [Example 1.86]
17,6.17,CC(=O)N[C@@H](C)c1ccc(OC2CCN(c3ccc(OCC(C)(C)F)cn3)C2)cc1 (stereo partly drawn) [Example 1.87]
18,6.37,CC(=O)N[C@@H](C)c1ccc(OC2CCN(c3ccc(OCCCF)nc3)C2)cc1 (stereo partly drawn) [Example 1.88]
19,6.56,CC(=O)N[C@@H](C)c1ccc(OC2CCN(c3cc(OCC4CC4(F)F)ncc3C)C2)cc1 (stereo partly drawn) [Example 1.89]
20,6.42,CCCOc1cc(N2CCC(Oc3ccc([C@H](C)NC(C)=O)cc3)C2)c(C)cn1 (stereo partly drawn) [Example 1.90]
21,6.18,CC(=O)N[C@@H](C)c1ccc(OC2CCN(c3ccc(OCC(C)(F)F)cn3)C2)cc1 (stereo partly drawn) [Example 1.91]

row,pIC50,Compound
1,6.28,CC(=O)N[C@@H](C)c1ccc(OC2CCN(c3cc(OCC(F)F)ncc3C)C2)cc1 (stereo partly drawn) [Example 1.92]
2,6.97,CC(=O)N[C@@H](C)c1ccc(OC2CCN(c3ccc(OCCC(F)F)cn3)C2)cc1 (stereo partly drawn) [Example 1.93]
3,7.03,CC(=O)N[C@@H](C)c1ccc(OC2CN(c3ccc(OCC4CC4(F)F)cn3)C[C@H]2F)cc1 (stereo partly drawn) [Example 1.94]
4,7.09,CCOc1nccc(N2CC[C@@H](Oc3ccc([C@H](C)NC(C)=O)cc3)C2)c1OC [Example 1.95]
5,6.94,CC(=O)N[C@@H](C)c1ccc(O[C@@H]2CCN(c3ccc(OCC4CC4)cn3)C2)cc1 [Example 1.96]
6,6.01,CCN(C)c1ccnc(N2CC[C@@H](Oc3ccc([C@H](C)NC(C)=O)cc3)C2)c1F [Example 1.97]
7,6.01,CC(=O)N[C@@H](C)c1ccc(O[C@@H]2CCN(c3nccc(N(C)C)c3F)C2)cc1 [Example 1.98]
8,6.70,CC(=O)N[C@@H](C)c1ccc(O[C@@H]2CCN(c3nccc(N4CCCC4)c3F)C2)cc1 [Example 1.99]
9,6.41,CC(=O)N[C@@H](C)c1ccc(O[C@@H]2CCN(c3nccc(N(C)CC4CC4)c3F)C2)cc1 [Example 1.100]
10,7.04,CC(=O)N[C@@H](C)c1ccc(O[C@@H]2CCN(c3ccnc(N4CCC4)c3F)C2)cc1 [Example 1.101]
11,7.21,CC(=O)N[C@@H](C)c1ccc(O[C@@H]2CCN(c3ccnc(N4CCCCC4)c3F)C2)cc1 [Example 1.102]
12,7.15,CCCN(C)c1nccc(N2CC[C@@H](Oc3ccc([C@H](C)NC(C)=O)cc3)C2)c1F [Example 1.103]
13,7.62,CC(=O)N[C@@H](C)c1ccc(O[C@@H]2CCN(c3ccnc(N4CCC5(CC5)C4)c3F)C2)cc1 [Example 1.104]
14,7.23,CC(=O)N[C@@H](C)c1ccc(O[C@@H]2CCN(c3ccnc(N4CC(F)(F)C4)c3F)C2)cc1 [Example 1.105]
15,7.16,COCCN(C)c1nccc(N2CC[C@@H](Oc3ccc([C@H](C)NC(C)=O)cc3)C2)c1F [Example 1.106]
16,7.28,CCCNc1nccc(N2CC[C@@H](Oc3ccc([C@H](C)NC(C)=O)cc3)C2)c1F [Example 1.107]
17,7.38,CC(=O)N[C@@H](C)c1ccc(O[C@@H]2CCN(c3ccnc(N(C)CC(F)F)c3F)C2)cc1 [Example 1.108]
18,6.81,COC1CN(c2nccc(N3CC[C@@H](Oc4ccc([C@H](C)NC(C)=O)cc4)C3)c2F)C1 [Example 1.109]
19,7.64,CC(=O)N[C@@H](C)c1ccc(O[C@@H]2CCN(c3ccnc(N4CCC(F)(F)C4)c3F)C2)cc1 [Example 1.110]
20,6.95,CC(=O)N[C@@H](C)c1ccc(O[C@@H]2CCN(c3ccnc(N(C)C(C)C)c3F)C2)cc1 [Example 1.111]
21,7.17,CC(=O)N[C@@H](C)c1ccc(O[C@@H]2CCN(c3ccnc(N(C)CC(F)(F)F)c3F)C2)cc1 [Example 1.112]

row,pIC50,Compound
1,6.79,CC(=O)N[C@@H](C)c1ccc(O[C@@H]2CCN(c3ccnc(NC4CCCC4)c3F)C2)cc1 [Example 1.113]
2,6.59,CCNc1nccc(N2CC[C@@H](Oc3ccc([C@H](C)NC(C)=O)cc3)C2)c1F [Example 1.115]
3,6.75,CC(=O)N[C@@H](C)c1ccc(O[C@@H]2CCN(c3ccnc(NCC(F)F)c3F)C2)cc1 [Example 1.116]
4,5.88,COCCNc1nccc(N2CC[C@@H](Oc3ccc([C@H](C)NC(C)=O)cc3)C2)c1F [Example 1.119]
5,7.49,COc1c(N2CC[C@@H](Oc3ccc([C@H](C)NC(C)=O)cc3)C2)ccnc1OCC(C)C [Example 1.120]
6,7.39,CCCOc1nccc(N2CC[C@@H](Oc3ccc([C@H](C)NC(C)=O)cc3)C2)c1OC [Example 1.121]
7,5.57,COc1cc(N2CC[C@@H](Oc3ccc([C@H](C)NC(C)=O)cc3)C2)cnc1OCC1CC1 [Example 1.122]
8,6.64,CC(=O)N[C@@H](C)c1ccc(O[C@@H]2CCN(c3ccc(OCC4CC(F)(F)C4)cn3)C2)cc1 [Example 1.123]
9,7.12,CC(=O)N[C@@H](C)c1ccc(O[C@@H]2CCN(c3ccnc(N4CCC(F)(F)C4)c3C)C2)cc1 [Example 1.124]
10,6.40,CC(=O)N[C@@H](C)c1ccc(O[C@@H]2CCN(c3ccnc(N4CCCC4)c3C)C2)cc1 [Example 1.125]
11,6.22,CC(=O)N[C@@H](C)c1ccc(O[C@@H]2CCN(c3ccnc(N4CCC4)c3C)C2)cc1 [Example 1.126]
12,7.51,COc1c(N2CC[C@@H](Oc3ccc([C@H](C)NC(C)=O)cc3)C2)ccnc1OCC1CC1 [Example 1.127]
13,6.44,CCOc1ccc(N2CC[C@@H](Oc3ccc([C@H](C)NC(C)=O)cc3)C2)c(OC)n1 [Example 1.128]
14,6.68,CCCN(C)c1nccc(N2CC[C@@H](Oc3ccc([C@H](C)NC(C)=O)cc3)C2)c1OC [Example 1.129]
15,6.63,CCCOc1ccc(N2CC[C@@H](Oc3ccc([C@H](C)NC(C)=O)cc3)C2)c(OC)n1 [Example 1.130]
16,7.12,CC(=O)N[C@@H](C)c1ccc(O[C@@H]2CCN(c3ccnc(N4CCC4)c3Cl)C2)cc1 [Example 1.131]
17,7.39,CC(=O)N[C@@H](C)c1ccc(O[C@@H]2CCN(c3ccnc(N4CCC(F)(F)C4)c3Cl)C2)cc1 [Example 1.132]
18,6.61,CC(=O)N[C@@H](C)c1ccc(O[C@@H]2CCN(c3cccc(N(C)CC(F)F)n3)C2)cc1 [Example 1.133]
19,6.99,CC(=O)N[C@@H](C)c1ccc(O[C@@H]2CCN(c3cccc(N(C)C4CCC4)n3)C2)cc1 [Example 1.134]
20,7.21,CCCNc1nccc(N2CC[C@@H](Oc3ccc([C@H](C)NC(C)=O)cc3)C2)c1Cl [Example 1.135]
21,6.32,COc1c(N2CC[C@@H](Oc3ccc([C@H](C)NC(C)=O)cc3)C2)ccnc1N1CCCC1 [Example 1.136]

row,Compound,pIC50
1,CC(=O)N[C@@H](C)c1ccc(O[C@@H]2CCN(c3ccnc(NCC4CC4)c3F)C2)cc1 [Example 1.114],7.37
2,CC(=O)N[C@@H](C)c1ccc(O[C@@H]2CCN(c3ccc(OC[C@@H]4CC4(F)F)cn3)C2)cc1 [Example 1.117],6.12
3,CC(=O)N[C@@H](C)c1ccc(O[C@@H]2CCN(c3ccc(OC[C@H]4CC4(F)F)cn3)C2)cc1 [Example 1.118],7.41
